Assay results published in ChEMBL document CHEMBL1201861, “Genomics of Drug Sensitity in Cancer screening data, Wellcome Trust Sanger Institute”.

What was measured:
Experiment in all cases: cells
SJSA-1 = type: functional, cell-based, Homo sapiens; conditions: Homo sapiens, SJSA-1;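 further: growth inhibition of human SJSA-1 cells, read out through a cell viability measurement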
Description: SANGER: Inhibition of human SJSA-1 cell growth in a cell viability assay.

NCI-H358 = type: functional, cell-based, Homo sapiens; conditions: Homo sapiens, NCI-H358;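 further: growth inhibition of NCI-H358 human cells, read out with a cell viability assay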
Description: SANGER: Inhibition of human NCI-H358 cell growth in a cell viability assay.

8505C = type: functional, cell-based, Homo sapiens; conditions: Homo sapiens, 8505C
Description: SANGER: Inhibition of human 8505C cell growth in a cell viability assay.

647-V = type: functional, cell-based, Homo sapiens; conditions: Homo sapiens, 647-V;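 further: growth inhibition of 647-V cells, read out with a cell viability assay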
Description: SANGER: Inhibition of human 647-V cell growth in a cell viability assay.

SNU-C2B = type: functional, cell-based, Homo sapiens; conditions: Homo sapiens, SNU-C2B;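 further: cell viability readout used to measure compound-driven suppression of SNU-C2B cell proliferation, IC50 marking half-maximal growth inhibition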
Description: SANGER: Inhibition of human SNU-C2B cell growth in a cell viability assay.

LK-2 = type: functional, cell-based, Homo sapiens; conditions: Homo sapiens, LK-2;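 further: growth inhibition of LK-2 cells, read out with a viability assay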
Description: SANGER: Inhibition of human LK-2 cell growth in a cell viability assay.

8-MG-BA = type: functional, cell-based, Homo sapiens; conditions: Homo sapiens, 8-MG-BA;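 further: growth inhibition of 8-MG-BA cells, read out with a cell viability assay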
Description: SANGER: Inhibition of human 8-MG-BA cell growth in a cell viability assay.

KP-N-YN = type: functional, cell-based; conditions: Homo sapiens;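 further: growth inhibition of KP-N-YN cells, read out with a cell viability assay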
Description: SANGER: Inhibition of human KP-N-YN cell growth in a cell viability assay.

Panc1005 = type: functional, cell-based, Homo sapiens; conditions: Homo sapiens, Panc1005;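 further: growth inhibition of human PANC-10-05 cells, measured by a cell viability assay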
Description: SANGER: Inhibition of human PANC-10-05 cell growth in a cell viability assay.

KG-1 = type: functional, cell-based; conditions: Homo sapiens;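 further: growth inhibition of KG-1 cells, read out by a cell viability assay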
Ca9-22 = type: functional, cell-based, Homo sapiens; conditions: Homo sapiens, Ca9-22;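 further: growth inhibition of Ca9-22 cells, read out with a cell viability assay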
Description: SANGER: Inhibition of human Ca9-22 cell growth in a cell viability assay.

SK-OV-3 = type: functional, cell-based, Homo sapiens; conditions: Homo sapiens, SK-OV-3;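 further: growth inhibition of SK-OV-3 human cells, read out with a cell viability assay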
Description: SANGER: Inhibition of human SK-OV-3 cell growth in a cell viability assay.

NCI-H28 = type: functional, cell-based, Homo sapiens; conditions: Homo sapiens, NCI-H28;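 further: growth inhibition of human NCI-H28 cells, read out as cell viability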
Description: SANGER: Inhibition of human NCI-H28 cell growth in a cell viability assay.

UMC-11 = type: functional, cell-based, Homo sapiens; conditions: Homo sapiens, UMC-11;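 further: growth inhibition of UMC-11 cells, read out with a cell viability assay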
Description: SANGER: Inhibition of human UMC-11 cell growth in a cell viability assay.

AGS = type: functional, cell-based, Homo sapiens; conditions: Homo sapiens, AGS;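 further: growth inhibition of AGS cells, determined with a cell viability assay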
Description: SANGER: Inhibition of human AGS cell growth in a cell viability assay.

NKM-1 = type: functional, cell-based; conditions: Homo sapiens;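 further: growth inhibition of NKM-1 cells, read out with a cell viability assay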
BCPAP = type: functional, cell-based, Homo sapiens; conditions: Homo sapiens, BCPAP;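 further: growth inhibition of BCPAP cells, read out in a cell viability assay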
Description: SANGER: Inhibition of human BCPAP cell growth in a cell viability assay.

LB771-HNC = type: functional, cell-based, Homo sapiens; conditions: Homo sapiens, LB771-HNC;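 further: growth inhibition of LB771-HNC human cells, read out with a cell viability assay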
LB2518-MEL = type: functional, cell-based, Homo sapiens; conditions: Homo sapiens, LB2518-MEL;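 further: growth inhibition of human LB2518-MEL cells, measured with a cell viability assay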
Description: SANGER: Inhibition of human LB2518-MEL cell growth in a cell viability assay.

GI-ME-N = type: functional, cell-based, Homo sapiens; conditions: Homo sapiens, GI-ME-N;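 further: growth inhibition of human GI-ME-N cells, read out with a cell viability assay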
Description: SANGER: Inhibition of human GI-ME-N cell growth in a cell viability assay.

HAL-01 = type: functional, cell-based; conditions: Homo sapiens;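 further: growth inhibition of human HAL-01 cells, read out with a cell viability assay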
Description: SANGER: Inhibition of human HAL-01 cell growth in a cell viability assay.

SK-MES-1 = type: functional, cell-based, Homo sapiens; conditions: Homo sapiens, SK-MES-1;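 further: growth inhibition of human SK-MES-1 cells, read out with a cell viability assay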
Description: SANGER: Inhibition of human SK-MES-1 cell growth in a cell viability assay.

A253 cell line = type: functional, cell-based, Homo sapiens; conditions: Homo sapiens, A253;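 further: growth inhibition of A253 cells, read out with a cell viability assay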
Description: SANGER: Inhibition of human A253 cell growth in a cell viability assay.

NCI-H1793 = type: functional, cell-based, Homo sapiens; conditions: Homo sapiens, NCI-H1793;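 further: cell growth inhibition, read out by a cell viability assay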
Description: SANGER: Inhibition of human NCI-H1793 cell growth in a cell viability assay.

NCI-H720 = type: functional, cell-based; conditions: Homo sapiens;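 further: growth inhibition of human NCI-H720 cells determined by a cell viability assay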
Description: SANGER: Inhibition of human NCI-H720 cell growth in a cell viability assay.

TGBC1TKB = type: functional, cell-based, Homo sapiens; conditions: Homo sapiens, TGBC1TKB;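 further: growth inhibition of TGBC1TKB cells, read out by a cell viability assay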
Description: SANGER: Inhibition of human TGBC1TKB cell growth in a cell viability assay.

GP5d = type: functional, cell-based, Homo sapiens; conditions: Homo sapiens, GP5d;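 further: growth inhibition of human GP5d cells, read out with a cell viability assay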
Description: SANGER: Inhibition of human GP5d cell growth in a cell viability assay.

NCI-H209 = type: functional, cell-based; conditions: Homo sapiens;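 further: growth inhibition of human NCI-H209 cells, measured by a cell viability assay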
Description: SANGER: Inhibition of human NCI-H209 cell growth in a cell viability assay.

IST-MES1 = type: functional, cell-based, Homo sapiens; conditions: Homo sapiens, IST-MES1;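 further: growth inhibition of IST-MES1 cells, measured with a cell viability assay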
Description: SANGER: Inhibition of human IST-MES1 cell growth in a cell viability assay.

ONS-76 = type: functional, cell-based, Homo sapiens; conditions: Homo sapiens, ONS-76;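 further: growth inhibition of human ONS-76 cells, read out with a cell viability assay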
Description: SANGER: Inhibition of human ONS-76 cell growth in a cell viability assay.

CHP-212 = type: functional, cell-based, Homo sapiens; conditions: Homo sapiens, CHP-212
Description: SANGER: Inhibition of human CHP-212 cell growth in a cell viability assay.

HOP-62 = type: functional, cell-based, Homo sapiens; conditions: Homo sapiens, HOP-62;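 further: cell growth inhibition determined with a viability assay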
Description: SANGER: Inhibition of human HOP-62 cell growth in a cell viability assay.

MKN-7 = type: functional, cell-based, Homo sapiens; conditions: Homo sapiens, MKN-7;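 further: growth inhibition of MKN-7 cells, read out with a cell viability assay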
Description: SANGER: Inhibition of human MKN7 cell growth in a cell viability assay.

NCI-H1581 = type: functional, cell-based, Homo sapiens; conditions: Homo sapiens, NCI-H1581;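 further: cell growth inhibition read out by a viability assay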
Description: SANGER: Inhibition of human NCI-H1581 cell growth in a cell viability assay.

EW-16 = type: functional, cell-based, Homo sapiens; conditions: Homo sapiens, EW-16;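 further: growth inhibition of human EW-16 cells, read out as cell viability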
Description: SANGER: Inhibition of human EW-16 cell growth in a cell viability assay.

KURAMOCHI = type: functional, cell-based; conditions: Homo sapiens;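 further: growth inhibition of KURAMOCHI cells, read out with a cell viability assay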
Description: SANGER: Inhibition of human KURAMOCHI cell growth in a cell viability assay.

EGI-1 = type: functional, cell-based, Homo sapiens; conditions: Homo sapiens, EGI-1;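 further: cell viability readout used to gauge growth inhibition of EGI-1 cells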
Description: SANGER: Inhibition of human EGI-1 cell growth in a cell viability assay.

A4-Fuk = type: functional, cell-based; conditions: Homo sapiens;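 further: growth inhibition of A4-Fuk cells, read out by a cell viability assay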
Description: SANGER: Inhibition of human A4-Fuk cell growth in a cell viability assay.

BE-13 = type: functional, cell-based; conditions: Homo sapiens;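 further: growth inhibition of human BE-13 cells, measured with a cell viability assay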
Description: SANGER: Inhibition of human BE-13 cell growth in a cell viability assay.

GAMG = type: functional, cell-based, Homo sapiens; conditions: Homo sapiens, GAMG;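 further: cell growth inhibition measured by a viability assay in the GAMG human cell line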
Description: SANGER: Inhibition of human GAMG cell growth in a cell viability assay.

RT-112 = type: functional, cell-based, Homo sapiens; conditions: Homo sapiens, RT-112
A2780 = type: functional, cell-based, Homo sapiens; conditions: Homo sapiens, A2780;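 further: growth inhibition of A2780 cells, read out with a cell viability assay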
Description: SANGER: Inhibition of human A2780 cell growth in a cell viability assay.

LAN-6 = type: functional, cell-based, Homo sapiens; conditions: Homo sapiens, LAN-6;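 further: growth inhibition of LAN-6 cells, determined with a cell viability assay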
Description: SANGER: Inhibition of human LAN-6 cell growth in a cell viability assay.

NCI-H1155 = type: functional, cell-based; conditions: Homo sapiens;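 further: cell growth inhibition measured by a viability assay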
Description: SANGER: Inhibition of human NCI-H1155 cell growth in a cell viability assay.

SCC-25 = type: functional, cell-based, Homo sapiens; conditions: Homo sapiens, SCC-25;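 further: growth inhibition of SCC-25 cells, measured with a cell viability assay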
HT-1080 = type: functional, cell-based, Homo sapiens; conditions: Homo sapiens, HT-1080
Description: SANGER: Inhibition of human HT-1080 cell growth in a cell viability assay.

SW1573 = type: functional, cell-based, Homo sapiens; conditions: Homo sapiens, SW1573;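 further: growth inhibition of SW1573 cells, read out with a cell viability assay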
Description: SANGER: Inhibition of human SW1573 cell growth in a cell viability assay.

NCI-H1693 = type: functional, cell-based, Homo sapiens; conditions: Homo sapiens, NCI-H1693;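 further: growth inhibition of the human cell line, read out with a cell viability assay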
Description: SANGER: Inhibition of human NCI-H1693 cell growth in a cell viability assay.

D283 Med = type: functional, cell-based, Homo sapiens; conditions: Homo sapiens, D283 Med
Description: SANGER: Inhibition of human D-283MED cell growth in a cell viability assay.

SNU-449 = type: functional, cell-based, Homo sapiens; conditions: Homo sapiens, SNU-449
Description: SANGER: Inhibition of human SNU-449 cell growth in a cell viability assay.

Compound: C=CCc1cccc(/C=N/NC(=O)CN2CCN(Cc3ccccc3)CC2)c1O [PAC-1]
- IC50 (SJSA-1): 2.32 µM
- IC50 (NCI-H358): 1.24 µM
- IC50 (8505C): > 2.56 µM
- IC50 (647-V): > 2.56 µM
- IC50 (SNU-C2B): > 2.56 µM
- IC50 (LK-2): > 2.56 µM
- IC50 (8-MG-BA): > 2.56 µM
- IC50 (KP-N-YN): > 2.56 µM
- IC50 (Panc1005): > 2.56 µM
- IC50 (KG-1): > 2.56 µM
- IC50 (Ca9-22): > 2.56 µM
- IC50 (SK-OV-3): 1.66 µM
- IC50 (NCI-H28): > 2.56 µM
- IC50 (UMC-11): > 2.56 µM
- IC50 (AGS): > 2.56 µM
- IC50 (NKM-1): > 2.56 µM
- IC50 (BCPAP): > 2.56 µM
- IC50 (LB771-HNC): > 2.56 µM
- IC50 (LB2518-MEL): > 2.56 µM
- IC50 (GI-ME-N): > 2.56 µM
- IC50 (HAL-01): 0.788 µM
- IC50 (SK-MES-1): > 2.56 µM
- IC50 (A253 cell line): > 2.56 µM
- IC50 (NCI-H1793): > 2.56 µM
- IC50 (NCI-H720): > 2.56 µM
- IC50 (TGBC1TKB): > 2.56 µM
- IC50 (GP5d): > 2.56 µM
- IC50 (NCI-H209): > 2.56 µM
- IC50 (IST-MES1): > 2.56 µM
- IC50 (ONS-76): > 2.56 µM
- IC50 (CHP-212): > 2.56 µM
- IC50 (HOP-62): 2.54 µM
- IC50 (MKN-7): > 2.56 µM
- IC50 (NCI-H1581): > 2.56 µM
- IC50 (EW-16): > 2.56 µM
- IC50 (KURAMOCHI): > 2.56 µM
- IC50 (EGI-1): > 2.56 µM
- IC50 (A4-Fuk): > 2.56 µM
- IC50 (BE-13): > 2.56 µM
- IC50 (GAMG): > 2.56 µM
- IC50 (RT-112): > 2.56 µM
- IC50 (A2780): > 2.56 µM
- IC50 (LAN-6): > 2.56 µM
- IC50 (NCI-H1155): > 2.56 µM
- IC50 (SCC-25): > 2.56 µM
- IC50 (HT-1080): > 2.56 µM
- IC50 (SW1573): > 2.56 µM
- IC50 (NCI-H1693): > 2.56 µM
- IC50 (D283 Med): > 2.56 µM
- IC50 (SNU-449): > 2.56 µM

Compound: Cc1ccc(Nc2nccc(N(C)c3ccc4c(C)n(C)nc4c3)n2)cc1S(N)(=O)=O [PAZOPANIB]
- IC50 (SJSA-1): > 8 µM
- IC50 (NCI-H358): > 8 µM
- IC50 (8505C): > 8 µM
- IC50 (647-V): > 8 µM
- IC50 (SNU-C2B): > 8 µM
- IC50 (LK-2): 2.65 µM
- IC50 (8-MG-BA): > 8 µM
- IC50 (KP-N-YN): > 8 µM
- IC50 (Panc1005): > 8 µM
- IC50 (KG-1): 0.718 µM
- IC50 (Ca9-22): > 8 µM
- IC50 (SK-OV-3): > 8 µM
- IC50 (NCI-H28): > 8 µM
- IC50 (UMC-11): > 8 µM
- IC50 (AGS): > 8 µM
- IC50 (NKM-1): > 8 µM
- IC50 (BCPAP): > 8 µM
- IC50 (LB771-HNC): > 8 µM
- IC50 (LB2518-MEL): > 8 µM
- IC50 (GI-ME-N): > 8 µM
- IC50 (HAL-01): > 8 µM
- IC50 (SK-MES-1): 6.87 µM
- IC50 (A253 cell line): > 8 µM
- IC50 (NCI-H1793): > 8 µM
- IC50 (NCI-H720): > 8 µM
- IC50 (TGBC1TKB): > 8 µM
- IC50 (GP5d): > 8 µM
- IC50 (NCI-H209): > 8 µM
- IC50 (IST-MES1): > 8 µM
- IC50 (ONS-76): > 8 µM
- IC50 (CHP-212): > 8 µM
- IC50 (HOP-62): > 8 µM
- IC50 (MKN-7): > 8 µM
- IC50 (NCI-H1581): > 8 µM
- IC50 (EW-16): > 8 µM
- IC50 (KURAMOCHI): > 8 µM
- IC50 (EGI-1): > 8 µM
- IC50 (A4-Fuk): > 8 µM
- IC50 (BE-13): > 8 µM
- IC50 (GAMG): 6.18 µM
- IC50 (RT-112): 1.1 µM
- IC50 (A2780): > 8 µM
- IC50 (LAN-6): > 8 µM
- IC50 (NCI-H1155): > 8 µM
- IC50 (SCC-25): > 8 µM
- IC50 (HT-1080): > 8 µM
- IC50 (SW1573): > 8 µM
- IC50 (NCI-H1693): > 8 µM
- IC50 (D283 Med): > 8 µM
- IC50 (SNU-449): > 8 µM

Compound: Cn1cncc1[C@@](N)(c1ccc(Cl)cc1)c1ccc2c(c1)c(-c1cccc(Cl)c1)cc(=O)n2C [TIPIFARNIB]
- IC50 (SJSA-1): > 16 µM
- IC50 (NCI-H358): 4.92 µM
- IC50 (8505C): 0.431 µM
- IC50 (647-V): 2.3 µM
- IC50 (SNU-C2B): 10.4 µM
- IC50 (LK-2): 1.06 µM
- IC50 (8-MG-BA): 2.13 µM
- IC50 (KP-N-YN): > 16 µM
- IC50 (Panc1005): 5.05 µM
- IC50 (KG-1): 3.06 µM
- IC50 (Ca9-22): 2.94 µM
- IC50 (SK-OV-3): 2.49 µM
- IC50 (NCI-H28): > 16 µM
- IC50 (UMC-11): > 16 µM
- IC50 (AGS): 4.53 µM
- IC50 (NKM-1): 0.774 µM
- IC50 (BCPAP): 1.32 µM
- IC50 (LB771-HNC): 1.13 µM
- IC50 (LB2518-MEL): 2.1 µM
- IC50 (GI-ME-N): > 16 µM
- IC50 (HAL-01): 6.74 µM
- IC50 (SK-MES-1): 1.91 µM
- IC50 (A253 cell line): 10.5 µM
- IC50 (NCI-H1793): > 16 µM
- IC50 (NCI-H720): > 16 µM
- IC50 (TGBC1TKB): > 16 µM
- IC50 (GP5d): 1.42 µM
- IC50 (NCI-H209): > 16 µM
- IC50 (IST-MES1): 14.6 µM
- IC50 (ONS-76): 1.47 µM
- IC50 (CHP-212): 1.38 µM
- IC50 (HOP-62): 3.21 µM
- IC50 (MKN-7): > 16 µM
- IC50 (NCI-H1581): > 16 µM
- IC50 (EW-16): 3.59 µM
- IC50 (KURAMOCHI): 4.78 µM
- IC50 (EGI-1): 11.6 µM
- IC50 (A4-Fuk): 0.0206 µM
- IC50 (BE-13): 4.94 µM
- IC50 (GAMG): 8.92 µM
- IC50 (RT-112): 0.382 µM
- IC50 (A2780): 3.3 µM
- IC50 (LAN-6): 14.1 µM
- IC50 (NCI-H1155): > 16 µM
- IC50 (SCC-25): 5.91 µM
- IC50 (HT-1080): 10.3 µM
- IC50 (SW1573): > 16 µM
- IC50 (NCI-H1693): > 16 µM
- IC50 (D283 Med): > 16 µM
- IC50 (SNU-449): 0.623 µM
